Results as given in patent publication US20180280504A1, “GLYCAN-INTERACTING COMPOUNDS AND METHODS OF USE” (SIAMAB THERAPEUTICS, INC., priority 2014, published 2018).
Blank lines part the entries; values can stand above or below the molecule they belong to.

How the values were obtained:
[1] = E3-STn allograft model, average weight of mice; assay type: in vivo, mouse
Protocol: Balb/c mice were used as part of the test system. 50 female mice were inoculated with E3-STn cells to cause STn-expressing tumor formation. Mice were maintained under pathogen-free conditions with irradiated feed and autoclaved water.
The average weight of mice in each treatment group was also determined on days 1, 4, 6, 8, 11, 13, 15, 18, 20, 22, 26, 27, 29, 32, 34, 36, 39 and 41 following the first administration of each test article (see the following Table). The percent gain or loss over initial weight values is listed in parentheses.

[2] = test system: ST6GalNAc 1 transfected MDA-MB-231 cells (MDA-STn+); experiment: Flow cytometry-based analysis of antibody binding, STn+ cells; design: species or system human; details: ST6GalNAc 1 transfected MDA-MB-231 cells; APC anti-mouse IgG
Protocol: Flow cytometry-based analysis is carried out to elucidate the curve-dose response for binding of antibodies to cell surface antigens. For these analyses, three cell lines are employed.
MDA-MB-231 cells are human breast cancer cells. They are grown in Earle's Minimum Essential Medium supplemented with 10% fetal calf serum (FCS), 100 μg/ml penicillin, 100 UI/ml streptomycin and 45 μg/ml gentamycin. MCF-7 cells are also human breast cancer cells and are grown under the same conditions as MDA-MB-231 cells. Stably transfected versions of MDA-MB-231 and MCF-7 cells (clone TAH3.P10 for MDA-MB-231 cells and clone A12.1 for MCF-7 cells) that over express GalNAc α2,6-sialyltransferase (ST6GalNAc 1,) are also cultured under the same conditions with the exception of an added 1 mg/ml of G418 to support cells expressing the transgene. ST6GalNAc 1 is an enzme capable of sialylating GalNAc. As a result of over expression, transfected cells express high levels of Neu5Ac-STn (see Julien, S. et al., Glycoconjugate journal. 2001. 18, 883-93; the contents of which are herein incorporated by reference in their entirety). E3 cells are murine breast cancer cells. They are cultured in Dulbecco's E4 medium with 10% FCS. Stably transfected versions of E3 cells expressing high levels of Neu5Gc-STn (E3-STn) are cultured with 600 μg/ml of G418 and 200 μg/ml hygromycin. During growth and maintenance of experimental cells, trypsin is not used for cell passaging.
For analysis, cells are harvested using StemPro Accutase (Life Technologies, Carlsbad, Calif.) and washed with PBS comprising 5% FBS before pelleting by light centrifugation. Cell numbers and viability are determined by trypan blue dye exclusion analysis and cell concentrations are adjusted to 5×10^6 cells/ml in PBS with 5% FBS. 50 μl of cells are added to each well of an assay plate. Cells are combined with 50 μl solutions of antibody being analyzed or control antibodies and incubated for 1 hour at 4° C. Cells are washed and pelleted twice with PBS with 5% FBS before being treated with 100 μl of PBS with 5% FBS comprising a 1:1,500 dilution of anti-mouse IgG (Southern Biotech, Birmingham, Ala.,) conjugated to allophycocyanin (APC). Cells are incubated for 30 min at 4° C. before washing and resuspending in 200 μl of propidium iodide (PI) diluted 1:1000 in PBS with 5% FBS. Treated cells are then subjects to flow cytometry analysis and 10,000 events are acquired for each sample.

[3] = PAA-glycan ELISA, GcSTn-PAA; assay type: binding; details: 200 ng/well PAA antigen; 1:5 dilutions from 1 μM
Protocol: (§1) 18D2 and 18C7 antibodies were further characterized by ELISA comprising antigens other than BSM. ELISAs were carried out according to Example 2, with the exception that ELISA plates were coated with biotinylated polyacrylamide (PAA) particles comprising either AcSTn (AcSTn-PAA), GcSTn (GcSTn-PAA) or Tn (Tn-PAA) as antigens. These particles present the antigens in a multivalent format. Briefly, 96-well ELISA plates were coated with 200 ng/well of each PAA antigen and blocked with PBS with 1% OVA. Antibodies were serially diluted at 1:5 in PBS with 1% OVA using an initial concentration of 1 μM. After blocking, antibodies were added to the plates and plates were incubated for 1.5 hours at room temperature. Binding of anti-STn antibodies was detected using a goat anti-mouse IgG-HRP conjugated antibody (Jackson Immunoresearch Laboratories, West Grove, Pa.). The reaction was developed by addition of HRP substrate and hydrogen peroxide. The reaction was then stopped by the addition of sulfuric acid (1.6 M). Optical densities were measured at 490 nm. A dose-response curve was generated using readings at each concentration tested and a non-linear regression curve was generated with four-parameter modeling to determine EC50 values for each antibody.

[4] = PAA-glycan ELISA, AcSTn-PAA; assay type: binding; details: 200 ng/well PAA antigen; 1:5 dilutions from 1 μM
Protocol: as §1

Average Weight ([1]; day 1 of study): 16.7 g | Average Weight ([1]; day 4 of study): 16.5 g | Average Weight ([1]; day 6 of study): 17 g | Average Weight ([1]; day 8 of study): 17.3 g | Average Weight ([1]; day 11 of study): 17.1 g | Average Weight ([1]; day 13 of study): 17.4 g | Average Weight ([1]; day 15 of study): 17.8 g | Average Weight ([1]; day 18 of study): 17.6 g | Average Weight ([1]; day 20 of study): 17.8 g | Average Weight ([1]; day 22 of study): 17.9 g | Average Weight ([1]; day 26 of study): 18.3 g | Average Weight ([1]; day 27 of study): 18.5 g | Average Weight ([1]; day 29 of study): 18.9 g | Average Weight ([1]; day 32 of study): 18.9 g | Average Weight ([1]; day 34 of study): 19.2 g | Average Weight ([1]; day 36 of study): 18.5 g | Average Weight ([1]; day 39 of study): 19.1 g | Average Weight ([1]; day 41 of study): 19.2 g
Molecule: CC(=O)O[C@H]1C(=O)[C@@]2(C)[C@H]([C@H](OC(=O)c3ccccc3)[C@]3(O)C[C@H](OC(=O)[C@H](O)[C@@H](NC(=O)c4ccccc4)c4ccccc4)C(C)=C1C3(C)C)[C@]1(OC(C)=O)CO[C@@H]1C[C@@H]2O [Paclitaxel, reference compound]

EC50, flow cytometry binding to cell-associated STn [2]: 2.42 nM | EC50 [3]: 73.2 nM | EC50 [4]: 152 nM
B1: 3F1: commercially available mouse anti-STn monoclonal antibody (SBH Sciences), IgG1; VH SEQ ID NO: 59, VL SEQ ID NO: 60 (antibody, V domains shown)
VH: QVQLQQSDAELVKPGASVKISCKASGYTFTDHAIHWVKQKPEQGLDWIGYISPGNGDIKYNEKFKDKVTLTADKSSSTACMHLNSLTSEDSAVYFCKRSLLALDYWGQGTTLTVSS
VL: DIVMTQSHKFMSTSVGDRVSITCKASQDVGTNIAWYQQKPGRSPKVLIYSASTRHTGVPDRFTGSGSGTDFTLTISNVQSEDLTDYFCQQYSSFPLTFGVGTKLELK
